According to PMC7909954 (eLife, 2021):
Like-named read-outs stand apart in the source and are kept apart here.

Columns and labels:
[1] = biological target: T1, KOR (Homo sapiens, UniProt P41145); details: for Log RA cAMP hKOR / LogRA Tango hKOR: transduction coefficient log(T/KA)
[2] = biological target: T2, mMOR (Mus musculus, UniProt P42866); test: cell-based; parameters: expressed in transfected cells; host or cells: HEK-293T
[3] = biological target: T3, rKOR (Rattus norvegicus, UniProt P34975)
[4] = biological target: T4, DOR (Homo sapiens, UniProt P41143); test: cell-based
[5] = biological target: T4, DOR; test: cell-based; details: for EC50: Tango
[6] = biological target: T1, KOR; test: cell-based; details: for Emax: HTLA, read-out: Emax% arrestin recruitment (Tango) hKOR
[7] = biological target: T2, mMOR; test: cell-based
[8] = biological target: T5, MOR (Homo sapiens, UniProt P35372)
[9] = biological target: T2, mMOR; test: biochemical
[10] = biological target: T6, mDOR (Mus musculus, UniProt P32300); test: cell-based
[11] = biological target: T6, mDOR; test: biochemical
[12] = biological target: T5, MOR; test: cell-based; details: for Emax: HEK-293T, read-out: Emax% cAMP inhibition hMOR
[13] = biological target: T1, KOR; test: cell-based; details: for EC50: EC50 cAMP inhibition hKOR; for Emax: HEK-293T, read-out: Emax% cAMP inhibition hKOR
[14] = biological target: T6, mDOR; test: cell-based; remark: listed apart in the source
[15] = biological target: T3, rKOR; test: cell-based; details: HEK-293T, read-out: Emax% arrestin recruitment (BRET) rKOR
[16] = biological target: T5, MOR; test: cell-based
[17] = biological target: T3, rKOR; test: cell-based; details: HEK-293T, read-out: Emax% G protein activation (BRET) rKOR
[18] = biological target: mKOR (Mus musculus, UniProt P33534); test: biochemical
[19] = biological target: T5, MOR; remark: listed apart in the source

T3 sequence (P34975 whole entry): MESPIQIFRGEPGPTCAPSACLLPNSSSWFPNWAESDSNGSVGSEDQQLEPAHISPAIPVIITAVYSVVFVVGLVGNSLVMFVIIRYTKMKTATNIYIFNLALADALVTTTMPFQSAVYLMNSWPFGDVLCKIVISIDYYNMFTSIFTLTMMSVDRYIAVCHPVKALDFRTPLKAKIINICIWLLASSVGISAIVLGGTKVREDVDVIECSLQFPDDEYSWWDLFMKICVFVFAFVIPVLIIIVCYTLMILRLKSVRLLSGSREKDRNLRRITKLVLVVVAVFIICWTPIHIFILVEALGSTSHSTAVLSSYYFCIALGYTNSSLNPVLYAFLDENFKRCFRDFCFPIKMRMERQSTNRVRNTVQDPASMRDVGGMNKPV
T6 sequence (P32300 whole entry): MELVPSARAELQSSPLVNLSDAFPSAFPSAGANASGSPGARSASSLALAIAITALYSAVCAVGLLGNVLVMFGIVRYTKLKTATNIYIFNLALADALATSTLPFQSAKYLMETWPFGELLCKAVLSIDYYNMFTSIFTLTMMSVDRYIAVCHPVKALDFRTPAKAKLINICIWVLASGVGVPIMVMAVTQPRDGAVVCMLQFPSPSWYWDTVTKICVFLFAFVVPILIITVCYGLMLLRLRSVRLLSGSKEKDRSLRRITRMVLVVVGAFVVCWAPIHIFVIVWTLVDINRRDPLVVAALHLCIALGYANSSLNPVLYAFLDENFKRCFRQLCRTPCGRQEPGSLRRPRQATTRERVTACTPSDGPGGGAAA
T1 sequence (P41145 whole entry): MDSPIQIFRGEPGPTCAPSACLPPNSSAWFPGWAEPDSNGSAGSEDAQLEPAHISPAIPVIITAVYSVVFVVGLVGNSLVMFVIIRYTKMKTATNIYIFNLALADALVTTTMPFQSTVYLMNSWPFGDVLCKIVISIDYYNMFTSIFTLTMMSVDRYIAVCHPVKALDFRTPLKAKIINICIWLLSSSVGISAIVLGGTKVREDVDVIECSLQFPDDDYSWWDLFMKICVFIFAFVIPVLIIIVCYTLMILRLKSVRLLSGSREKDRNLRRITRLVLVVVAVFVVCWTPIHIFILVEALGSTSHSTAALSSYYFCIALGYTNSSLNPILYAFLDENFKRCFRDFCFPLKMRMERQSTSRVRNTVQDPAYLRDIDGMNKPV
T2 sequence (P42866 whole entry): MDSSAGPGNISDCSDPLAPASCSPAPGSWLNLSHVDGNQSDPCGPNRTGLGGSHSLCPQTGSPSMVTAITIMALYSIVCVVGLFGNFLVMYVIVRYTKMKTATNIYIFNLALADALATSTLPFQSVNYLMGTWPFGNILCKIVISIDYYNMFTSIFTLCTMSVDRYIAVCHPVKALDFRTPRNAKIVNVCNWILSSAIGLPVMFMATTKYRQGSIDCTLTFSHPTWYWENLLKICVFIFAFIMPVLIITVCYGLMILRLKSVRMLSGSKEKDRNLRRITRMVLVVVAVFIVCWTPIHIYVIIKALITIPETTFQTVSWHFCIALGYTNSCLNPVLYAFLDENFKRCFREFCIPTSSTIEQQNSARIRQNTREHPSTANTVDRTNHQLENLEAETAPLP
T4 sequence (P41143 whole entry): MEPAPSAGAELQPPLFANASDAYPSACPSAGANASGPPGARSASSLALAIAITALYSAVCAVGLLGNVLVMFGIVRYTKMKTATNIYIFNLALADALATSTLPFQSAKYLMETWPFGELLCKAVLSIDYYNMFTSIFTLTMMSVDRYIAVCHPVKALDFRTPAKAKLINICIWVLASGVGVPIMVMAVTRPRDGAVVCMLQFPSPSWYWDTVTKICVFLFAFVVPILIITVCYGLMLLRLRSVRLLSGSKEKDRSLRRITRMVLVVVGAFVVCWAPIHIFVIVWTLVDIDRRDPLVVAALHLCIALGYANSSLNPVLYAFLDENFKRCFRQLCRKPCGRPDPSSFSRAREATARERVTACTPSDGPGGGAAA
T5 sequence (P35372 whole entry): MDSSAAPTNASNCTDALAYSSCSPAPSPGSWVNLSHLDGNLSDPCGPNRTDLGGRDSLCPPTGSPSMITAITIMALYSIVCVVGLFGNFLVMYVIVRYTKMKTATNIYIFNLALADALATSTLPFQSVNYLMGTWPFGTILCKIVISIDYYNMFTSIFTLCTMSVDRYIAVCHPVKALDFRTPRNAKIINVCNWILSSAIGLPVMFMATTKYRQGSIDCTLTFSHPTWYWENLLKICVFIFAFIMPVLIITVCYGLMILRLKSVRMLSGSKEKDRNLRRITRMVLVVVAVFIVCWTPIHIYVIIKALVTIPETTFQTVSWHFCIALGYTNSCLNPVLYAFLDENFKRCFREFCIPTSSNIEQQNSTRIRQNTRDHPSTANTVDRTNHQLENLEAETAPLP
Sequence of mKOR (P33534 whole entry): as the sequence (P34975 whole entry) above, with E11D, A17S, P51S, V308A counted along it

SMILES: O=C(NC1CCC2(O)C3Cc4ccc(O)c5c4C2(CCN3CC2CC2)C1O5)c1cccc(I)c1 (stereo not drawn) [IBNtxA]
- ΔΔlog RA (cAMP-Tango) hKOR [1]: -1.002±0.052
- Bias factor (cAMP-Tango) hKOR ([1]; >1 G protein bias, <1 arrestin bias, vs U50,488h): 0.1
- Log RA cAMP hKOR [1]: 11.59±0.036
- LogRA Tango hKOR [1]: 10.89±0.010
- ΔlogRA Tango hKOR ([1]; vs U50,488h): 2.53±0.015
- ΔlogRA cAMP hKOR ([1]; vs U50,488h): 1.53±0.050
- EC50 [2]: 11300 nM
- Emax ([2]; HEK-293T, read-out: Emax% arrestin recruitment (BRET) mMOR): 75%
- Log RA BRET-G rKOR [3]: 10.19±0.141
- LogRA BRET-Arr rKOR [3]: 8.846±0.266
- ΔΔlog RA (BRETG-BRETArr) rKOR [3]: -0.218±0.388
- ΔlogRA BRET-G rKOR ([3]; vs U50,488h): 2.64±0.175
- ΔlogRA BRET-arr rKOR ([3]; vs U50,488h): 2.858±0.346
- EC50 ([4]; EC50 cAMP inhibition hDOR): 0.43 nM
- Emax ([4]; HEK-293T, read-out: Emax% cAMP inhibition hDOR): 106 ± 1%
- EC50 ([4]; pEC50 cAMP inhibition hDOR, ± SEM): 0.501 nM
- EC50 ([5]; EC50 arrestin recruitment hDOR): 14.1 nM
- Emax ([5]; HTLA, read-out: Emax% arrestin recruitment hDOR): 224 ± 5%
- EC50 ([5]; pEC50 arrestin recruitment hDOR, ± SEM): 15.8 nM
- EC50 ([6]; EC50 arrestin recruitment (Tango) hKOR): 0.013 nM
- Emax [6]: 109 ± 1.8%
- EC50 ([7]; EC50 G protein activation (BRET) mMOR): 0.054 nM
- Emax ([7]; HEK-293T, read-out: Emax% G protein activation (BRET) mMOR): 59%
- Bias factor (cAMP-Tango) hMOR [8]: 24
- Log RA cAMP hMOR [8]: 9.99±0.081
- LogRA Tango hMOR [8]: 7.572±0.25
- ΔlogRA Tango hMOR [8]: -0.25±0.25
- ΔlogRA cAMP hMOR [8]: 1.14±0.11
- ΔΔlog RA (cAMP-Tango) hMOR [8]: 1.38±0.28
- EC50 ([9]; EC50 mMOR [35S]GTPγS, ± SEM): 0.49 ± 0.12 nM
- Emax ([9]; read-out: Emax mMOR [35S]GTPγS): 101 ± 3%
- EC50 ([10]; EC50 arrestin recruitment (BRET) mDOR): 26.6 nM
- Emax ([10]; HEK-293T, read-out: Emax% arrestin recruitment (BRET) mDOR): 88 ± 6.8%
- EC50 ([10]; pEC50 arrestin recruitment (BRET) mDOR, ± SEM): 31.6 nM
- EC50 [11]: 4.08 ± 0.67 nM
- Emax ([11]; read-out: Emax mDOR [35S]GTPγS): 95 ± 2%
- EC50 ([12]; EC50 cAMP inhibition hMOR): 0.07 nM
- Emax [12]: 95 ± 2%
- EC50 ([13]; cell printed in pM): 2.46 pM
- Emax [13]: 101 ± 1.79%
- EC50 ([14]; EC50 G protein activation (BRET) mDOR): 0.48 nM
- Emax ([14]; HEK-293T, read-out: Emax% G protein activation (BRET) mDOR): 108 ± 3.7%
- Emax [15]: 133 ± 7.3%
- EC50 [16]: 5.86 nM
- Emax ([16]; HTLA, read-out: Emax% arrestin recruitment (Tango) hMOR): 29 ± 0.02%
- Emax [17]: 101 ± 2.3%
- EC50 ([18]; EC50 mKOR [35S]GTPγS, ± SEM): 0.22 ± 0.02 nM
- Emax ([18]; read-out: Emax mKOR [35S]GTPγS): 102 ± 4%

SMILES: NCc1ccc(C(=O)N[C@@H]2CC[C@H]3[C@H]4Cc5ccc(O)c6c5[C@@]3(CCN4CC3CC3)[C@H]2O6)cc1 [MP1209, 4-(Aminomethyl)-N-((4R,4aR,7R,7aR,12bS)−3-(cyclopropylmethyl)−9-hydroxy-2,3,4,4a,5,6,7,7a-octahydro-1H-4,12-methano[1]benzofuro[3,2-e]isoquinolin-7-yl)benzamide]
- ΔΔlog RA (cAMP-Tango) hKOR [1]: -0.238±0.32
- Log RA cAMP hKOR [1]: 10.55±0.06
- LogRA Tango hKOR [1]: 8.735±0.220
- ΔlogRA Tango hKOR ([1]; vs U50,488h): 0.368±0.31
- ΔlogRA cAMP hKOR ([1]; vs U50,488h): 0.13±0.084
- Emax [6]: 67 ± 3%
- EC50 ([6]; pEC50 arrestin recruitment (Tango) hKOR, ± SEM): 0.372 nM
- Emax [12]: 98.5 ± 0.96%
- EC50 ([12]; pEC50 cAMP inhibition hMOR): 0.245 nM
- EC50 [13]: 24 pM
- Emax [13]: 100 ± 1.23%
- arrestin recruitment at hMOR (in words) [19]: null arrestin recruitment
